According to publication PMC10601815, “αβ,α′β′-Diepoxyketones are mechanism-based inhibitors of nucleophilic cysteine enzymes” (Chemical Communications (Cambridge, England), 2023):
Values joined by “and” are separate entries in the source; they are usually repeats but may differ in a detail not shown here. Equal values may be shown once. Read-outs that look alike come from different tables or passages of the source.

Tests used:
[1] = target: T1, LdtMt2 (Mycobacterium tuberculosis, UniProt I6Y9J2); type: binding
[2] = for kchem (kinetic rate constant for reactivity with GSH): 500 nM L-glutathione, 10 µM Probe 1, pH 7.2; for half-life (t1/2) of reaction with GSH: buffer
[3] = target: T1, LdtMt2; assay: biochemical
[4] = target: T1, LdtMt2; assay: biochemical; settings: for IC50: read-out: pIC50 LdtMt2 (converted)
[5] = 1 µM LdtMt2, inhibitor 20 µM (100 µM for 12), rt, 15 min
[6] = 1 µM LdtMt2, inhibitor 20 µM (100 µM for 12), rt, 24 h

T1 sequence (I6Y9J2 56-408): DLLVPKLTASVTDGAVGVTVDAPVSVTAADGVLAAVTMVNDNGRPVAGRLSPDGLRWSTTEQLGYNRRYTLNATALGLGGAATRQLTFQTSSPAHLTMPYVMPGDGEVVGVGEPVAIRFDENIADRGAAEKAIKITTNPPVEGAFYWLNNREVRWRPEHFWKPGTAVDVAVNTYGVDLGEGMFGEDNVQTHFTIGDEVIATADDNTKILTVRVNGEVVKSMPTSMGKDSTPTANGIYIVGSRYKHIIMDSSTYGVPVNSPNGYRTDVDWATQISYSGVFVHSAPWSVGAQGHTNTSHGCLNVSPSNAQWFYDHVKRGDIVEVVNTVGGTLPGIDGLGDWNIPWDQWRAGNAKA

Structure (SMILES) | Area (%) 15 min, assignment Retro-aldol fragment (3) [1] [%] | Area (%) 15 min, assignment Unfragmented (2) [1] [%] | Area (%) 15 min, assignment Unmodified LdtMt2 [1] [%] | Area (%) 24 h, assignment Dha (-34 Da) [1] | Area (%) 24 h, assignment Retro-aldol fragment (3) [1] [%] | Area (%) 24 h, assignment Unfragmented (2) [1] [%] | Area (%) 24 h, assignment Unmodified LdtMt2 [1] [%] | kchem (kinetic rate constant for reactivity with GSH) [2] | kinact/KI LdtMt2 [3] [M⁻¹ s⁻¹] | pIC50 LdtMt2 [4] | other results
COc1ccccc1C1OC1C(=O)C1OC1c1ccccc1OC (mixture of isomers) [DEK 5] | 9.0 | 77.9 | 2.5 | ~30% and 30.4% | 39.6 | 0.0 | 0.0 | < 0.8 M⁻¹ s⁻¹ | 61.1 ± 2.78 | – | Area (%) 15 min, adduct with assignment N.D. (+309 Da for 5, +80 Da for 8 and 9) [1]: 0.0%; Area (%) 15 min, assignment Dha (-34 Da) [1]: 0.0%; Area (%) 15 min, assignment Unassigned fragment / Fragment II (+56/+57 Da) [1]: 0.0%; Area (%) 24 h, adduct with assignment N.D. (+309 Da for 5, +80 Da for 8 and 9) [1]: 4.22%
Cc1cccc(C)c1C1OC1C(=O)C1OC1c1c(C)cccc1C (mixture of isomers) [DEK 8] | 0.0 | – | 100.0 | – | 16.3 | – | 68.8 | 1.11 ± 0.20 M⁻¹ s⁻¹ and 1.1 ± 0.2 M⁻¹ s⁻¹ | < 10.0 | – | Area (%) 15 min, adduct with assignment N.D. (+309 Da for 5, +80 Da for 8 and 9) [1]: 0.0%; Area (%) 24 h, adduct with assignment N.D. (+309 Da for 5, +80 Da for 8 and 9) [1]: 14.9%; half-life (t1/2) of reaction with GSH [2]: 38 min; inhibition of LdtMt2 in the kinact/KI determination (in words) [3]: no evidence for inhibition
O=C(C1OC1c1ccccc1)C1OC1c1ccccc1 (mixture of isomers) [diastereomeric mixture of 1] | – | – | – | – | – | – | – | – | – | 5.59 ± 0.036 and 5.6 ± 0.04 | –
O=C(c1ccccc1)C1OC1c1ccccc1 (racemic) [Epoxide 12, reference compound] | 0.0 | 8.6 | 91.4 | – | 87.2 | 0.0 | 12.8 | – | – | < 4.4 | inhibition of LdtMt2 in dose-response assays (in words) [4]: did not manifest inhibition; covalent reaction with LdtMt2 (in words) [1]: evidenced covalent reaction
Cc1cc(C)cc([C@@H]2O[C@H]2C(=O)[C@@H]2O[C@H]2c2cc(C)cc(C)c2)c1 (relative stereo) [DEK 7] | 43.7 | 44.8 | 11.5 | ~16% and 16.2% | 70.3 | 0.0 | 0.0 | 1.71 ± 0.24 M⁻¹ s⁻¹ and 1.7 ± 0.2 M⁻¹ s⁻¹ | 80.9 ± 6.74 | – | Area (%) 15 min, assignment Dha (-34 Da) [1]: 0.0%; Area (%) 15 min, assignment Unassigned fragment / Fragment II (+56/+57 Da) [1]: 0.0%; half-life (t1/2) of reaction with GSH [2]: 24 min
O=C([C@H]1O[C@@H]1c1ccccc1)[C@@H]1O[C@H]1c1ccccc1 [DEK 1] | – | – | – | – | – | – | – | < 0.8 M⁻¹ s⁻¹ | – | – | IC50 ([4]; 15 min preincubation, 100 nM LdtMt2, 25 µM Probe 1, n=4): 617 nM and 631 nM; IC50 ([4]; 30 min pre-incubation): 63.1 nM; IC50 ([4]; Table S3, 10 min pre-incubation, 100 nM LdtMt2, 25 µM Probe 1): 1000 nM; Area (%) 15 min, assignment Dha (-34 Da) [1, 5]: 0.0%; Area (%) 15 min, assignment Retro-aldol fragment (3) [1, 5]: 23.3%; Area (%) 15 min, assignment Unfragmented (2) [1, 5]: 74.7%; Area (%) 15 min, assignment Unmodified LdtMt2 [1, 5]: 2.0%; Area (%) 24 h, assignment Dha (-34 Da) [1, 6]: ~5% and 5.0%; Area (%) 24 h, assignment Retro-aldol fragment (3) [1, 6]: 82.0%; Area (%) 24 h, assignment Unfragmented (2) [1, 6]: 7.2%; Area (%) 24 h, assignment Unmodified LdtMt2 [1, 6]: 0.0%; Area (%) 15 min, assignment Unassigned fragment / Fragment II (+56/+57 Da) ([1]; 1 µM LdtMt2, inhibitor 20 µM, rt, 15 min): 0.0%; covalent reaction with LdtMt2 (in words) ([1]; 1 µM LdtMt2, inhibitor 20 µM (100 µM for 12)): covalently reacts with LdtMt2; time for conversion of the initial adduct (2, +267 Da) into the +160 Da adduct (3) ([1]; 1 (20 µM), LdtMt2 (1 µM)): ≤ 2 h; kinact/KI ([3]; 100 nM LdtMt2, 10 µM Probe 1, 3.5 h): 484 ± 28.4 M⁻¹ s⁻¹
O=C(C1OC1c1ccc(OC(F)(F)F)cc1)C1OC1c1ccc(OC(F)(F)F)cc1 (stereo not shown) [DEK 4] | 18.1 | 5.41 | 76.5 | ~2.5% and 2.4% | 97.6 | 0.0 | 0.0 | < 0.8 M⁻¹ s⁻¹ | < 10.0 | – | Area (%) 15 min, assignment Dha (-34 Da) [1]: 0.0%; inhibition of LdtMt2 in the kinact/KI determination (in words) [3]: no evidence for inhibition
O=C(C1OC1c1ccccc1OC(F)(F)F)C1OC1c1ccccc1OC(F)(F)F (stereo not shown) [DEK 6] | 11.6 | 81.2 | 7.2 | no evidence for Dha formation | 93.2 | 0.0 | 2.6 | < 0.8 M⁻¹ s⁻¹ | 140.6 ± 17.1 | – | Area (%) 15 min, assignment Unassigned fragment / Fragment II (+56/+57 Da) [1]: 0.0%
O=C1C2(CCC13OC3c1ccccc1)OC2c1ccccc1 (stereo not shown) [DEK 9] | 68.8 | 21.0 | 3.3 | – | 90.9 | 0.0 | 0.0 | < 0.8 M⁻¹ s⁻¹ | 25.8 ± 1.41 | – | Area (%) 15 min, adduct with assignment N.D. (+309 Da for 5, +80 Da for 8 and 9) [1]: 6.9%; Area (%) 24 h, adduct with assignment N.D. (+309 Da for 5, +80 Da for 8 and 9) [1]: 9.1%
O=C1C2(CCCC13OC3c1ccccc1)OC2c1ccccc1 (stereo not shown) [DEK 10] | – | 0.0 | 100.0 | – | – | 9.8 | 90.2 | < 0.8 M⁻¹ s⁻¹ | < 10.0 | < 4.4 | inhibition of LdtMt2 in the kinact/KI determination (in words) [3]: no evidence for inhibition
O=C1C2(CCCCC13OC3c1ccccc1)OC2c1ccccc1 (stereo not shown) [DEK 11] | – | – | 100.0 | – | – | – | 100.0 | – | – | < 4.4 | –
